Measured values published in ChEMBL document CHEMBL1759897, “Discovery of non-peptide, small molecule antagonists of α9α10 nicotinic acetylcholine receptors as novel analgesics for the treatment of neuropathic and tonic inflammatory pain” (Bioorg Med Chem Lett, 2011).
Activity calls are given as the source filed them. The rule behind the calls is not given here.

How the values were obtained:
[1] = target: Neuronal acetylcholine receptor; alpha9/alpha10 (Homo sapiens) (UniProt Q9UGM1+Q9GZZ6); assay: Antagonist activity at alpha9/alpha10 nAChR expressed in Xenopus oocyte assessed as inhibition of ACh-gated current response at 100 nM by voltage clamp electrophysiology assay; format: functional; set-up: scale not given: the % may be the effect or the level left
[2] = target: Neuronal acetylcholine receptor subunit alpha-7 (Homo sapiens, UniProt P36544); assay: Antagonist activity at alpha7 nAChR expressed in Xenopus oocyte assessed as inhibition of ACh-gated current by voltage clamp electrophysiology assay; format: functional
[3] = target: Neuronal acetylcholine receptor; alpha9/alpha10 (Homo sapiens, UniProt Q9GZZ6+Q9UGM1); assay: Antagonist activity at alpha9/alpha10 nAChR expressed in Xenopus oocyte assessed as inhibition of ACh-gated current by voltage clamp electrophysiology assay; format: functional
[4] = target: Neuronal acetylcholine receptor; alpha4/beta2 (Homo sapiens, UniProt P17787+P43681); assay: Inhibition of alpha4beta2 nAChR; format: protein-complex assay
[5] = target: Neuronal acetylcholine receptor; alpha3/beta4 (Homo sapiens, UniProt P30926+P32297); assay: Inhibition of alpha3beta4 nAChR; format: protein-complex assay
[6] = Inhibition of muscle nAChR; format: tissue-based, Muscle tissue
[7] = organism: Rattus norvegicus; assay: Analgesic activity in rat inflammatory pain model assessed reduction formalin-induced inflammatory pain; format: functional, organism-based
[8] = organism: Rattus norvegicus; assay: Analgesic activity in rat pain model by tail flick test; format: functional, organism-based
[9] = organism: Rattus norvegicus; assay: Analgesic activity in rat chronic constriction nerve injury model of neuropathic pain assessed as reversal of mechanical hyperalgesia; format: functional, organism-based
[10] = tested on: Rattus norvegicus; assay: Analgesic activity in rat chronic constriction nerve injury model of neuropathic pain assessed as reversal of mechanical hyperalgesia measured after repeated dosing for 7 days; format: functional, organism-based

Neuronal acetylcholine receptor; alpha9/alpha10, sequence (Q9UGM1 whole entry): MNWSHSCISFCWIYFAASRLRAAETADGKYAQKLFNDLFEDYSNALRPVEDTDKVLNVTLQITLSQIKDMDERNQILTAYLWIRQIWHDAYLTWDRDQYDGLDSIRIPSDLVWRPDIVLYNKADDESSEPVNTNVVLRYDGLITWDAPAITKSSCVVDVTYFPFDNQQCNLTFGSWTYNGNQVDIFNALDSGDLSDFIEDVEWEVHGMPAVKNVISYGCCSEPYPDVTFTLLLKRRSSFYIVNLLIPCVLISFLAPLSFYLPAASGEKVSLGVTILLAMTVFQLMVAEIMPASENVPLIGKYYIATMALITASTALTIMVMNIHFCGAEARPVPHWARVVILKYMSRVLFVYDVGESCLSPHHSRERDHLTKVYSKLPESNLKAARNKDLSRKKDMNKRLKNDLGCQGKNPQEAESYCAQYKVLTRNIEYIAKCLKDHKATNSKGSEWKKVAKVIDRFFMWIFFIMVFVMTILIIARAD
Neuronal acetylcholine receptor; alpha9/alpha10, sequence (Q9GZZ6 whole entry): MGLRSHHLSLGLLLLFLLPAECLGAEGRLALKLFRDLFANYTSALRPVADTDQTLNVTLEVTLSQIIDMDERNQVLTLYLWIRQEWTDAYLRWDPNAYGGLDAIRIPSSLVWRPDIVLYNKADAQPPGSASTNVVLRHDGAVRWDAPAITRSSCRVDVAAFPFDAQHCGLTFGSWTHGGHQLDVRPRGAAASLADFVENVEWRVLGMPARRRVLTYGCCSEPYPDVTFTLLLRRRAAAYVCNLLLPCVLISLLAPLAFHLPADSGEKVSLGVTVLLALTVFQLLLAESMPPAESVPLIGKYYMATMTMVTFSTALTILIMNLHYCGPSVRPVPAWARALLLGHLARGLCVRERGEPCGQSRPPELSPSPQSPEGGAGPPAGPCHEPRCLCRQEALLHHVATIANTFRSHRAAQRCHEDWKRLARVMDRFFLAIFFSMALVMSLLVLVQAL
Neuronal acetylcholine receptor subunit alpha-7, sequence (P36544 whole entry): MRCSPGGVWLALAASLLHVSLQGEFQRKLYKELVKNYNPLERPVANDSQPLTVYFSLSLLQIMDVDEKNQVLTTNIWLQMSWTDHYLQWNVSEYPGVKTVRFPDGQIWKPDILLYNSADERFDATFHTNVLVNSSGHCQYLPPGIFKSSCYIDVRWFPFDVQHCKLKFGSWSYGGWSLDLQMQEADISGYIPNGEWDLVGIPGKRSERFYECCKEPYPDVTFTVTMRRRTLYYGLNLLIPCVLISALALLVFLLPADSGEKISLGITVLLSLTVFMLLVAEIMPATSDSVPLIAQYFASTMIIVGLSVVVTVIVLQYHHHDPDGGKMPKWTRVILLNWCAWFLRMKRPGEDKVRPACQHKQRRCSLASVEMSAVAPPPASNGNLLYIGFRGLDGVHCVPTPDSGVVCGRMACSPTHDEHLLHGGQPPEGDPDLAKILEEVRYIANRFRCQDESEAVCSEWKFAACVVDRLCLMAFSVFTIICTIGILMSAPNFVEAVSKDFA
Neuronal acetylcholine receptor; alpha3/beta4, sequence (P30926 whole entry): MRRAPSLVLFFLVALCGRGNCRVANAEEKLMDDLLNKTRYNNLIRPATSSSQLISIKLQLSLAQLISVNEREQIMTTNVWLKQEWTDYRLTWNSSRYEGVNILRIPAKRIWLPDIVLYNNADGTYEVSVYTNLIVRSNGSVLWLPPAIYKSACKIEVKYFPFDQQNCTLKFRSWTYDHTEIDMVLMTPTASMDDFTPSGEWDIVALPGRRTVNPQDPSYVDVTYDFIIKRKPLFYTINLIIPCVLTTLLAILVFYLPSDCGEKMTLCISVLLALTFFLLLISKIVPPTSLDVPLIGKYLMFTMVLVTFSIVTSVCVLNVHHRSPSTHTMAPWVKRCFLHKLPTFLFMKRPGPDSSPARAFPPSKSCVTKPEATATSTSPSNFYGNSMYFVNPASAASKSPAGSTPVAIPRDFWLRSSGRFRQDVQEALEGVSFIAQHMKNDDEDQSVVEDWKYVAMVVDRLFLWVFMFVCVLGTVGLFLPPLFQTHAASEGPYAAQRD
Neuronal acetylcholine receptor; alpha3/beta4, sequence (P32297 whole entry): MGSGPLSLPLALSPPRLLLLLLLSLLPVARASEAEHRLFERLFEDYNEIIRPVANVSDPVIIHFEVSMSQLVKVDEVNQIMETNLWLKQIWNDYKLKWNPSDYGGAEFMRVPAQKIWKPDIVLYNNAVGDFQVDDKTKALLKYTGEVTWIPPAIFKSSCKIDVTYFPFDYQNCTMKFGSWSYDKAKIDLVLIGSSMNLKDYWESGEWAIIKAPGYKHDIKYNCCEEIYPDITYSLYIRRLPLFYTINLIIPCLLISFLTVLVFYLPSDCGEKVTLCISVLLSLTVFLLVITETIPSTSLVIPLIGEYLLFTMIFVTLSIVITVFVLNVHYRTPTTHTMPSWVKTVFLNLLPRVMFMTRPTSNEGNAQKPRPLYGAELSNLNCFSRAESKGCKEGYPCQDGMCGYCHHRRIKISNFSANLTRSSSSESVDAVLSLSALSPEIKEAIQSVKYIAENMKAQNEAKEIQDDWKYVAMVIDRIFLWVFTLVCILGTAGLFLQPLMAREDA
Neuronal acetylcholine receptor; alpha4/beta2, sequence (P17787 whole entry): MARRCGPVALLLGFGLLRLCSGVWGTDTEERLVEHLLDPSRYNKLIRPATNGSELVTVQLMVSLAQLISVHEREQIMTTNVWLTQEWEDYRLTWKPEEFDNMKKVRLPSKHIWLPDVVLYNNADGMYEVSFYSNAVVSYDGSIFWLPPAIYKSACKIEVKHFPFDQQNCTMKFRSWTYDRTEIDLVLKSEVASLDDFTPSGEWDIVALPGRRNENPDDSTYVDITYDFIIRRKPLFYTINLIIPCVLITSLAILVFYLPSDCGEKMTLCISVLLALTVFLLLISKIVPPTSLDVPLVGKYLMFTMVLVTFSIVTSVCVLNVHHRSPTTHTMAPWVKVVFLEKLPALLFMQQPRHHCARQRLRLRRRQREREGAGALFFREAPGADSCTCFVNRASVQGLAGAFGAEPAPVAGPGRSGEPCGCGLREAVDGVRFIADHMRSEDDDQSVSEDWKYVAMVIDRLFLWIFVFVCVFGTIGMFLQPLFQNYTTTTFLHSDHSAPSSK
Neuronal acetylcholine receptor; alpha4/beta2, sequence (P43681 whole entry): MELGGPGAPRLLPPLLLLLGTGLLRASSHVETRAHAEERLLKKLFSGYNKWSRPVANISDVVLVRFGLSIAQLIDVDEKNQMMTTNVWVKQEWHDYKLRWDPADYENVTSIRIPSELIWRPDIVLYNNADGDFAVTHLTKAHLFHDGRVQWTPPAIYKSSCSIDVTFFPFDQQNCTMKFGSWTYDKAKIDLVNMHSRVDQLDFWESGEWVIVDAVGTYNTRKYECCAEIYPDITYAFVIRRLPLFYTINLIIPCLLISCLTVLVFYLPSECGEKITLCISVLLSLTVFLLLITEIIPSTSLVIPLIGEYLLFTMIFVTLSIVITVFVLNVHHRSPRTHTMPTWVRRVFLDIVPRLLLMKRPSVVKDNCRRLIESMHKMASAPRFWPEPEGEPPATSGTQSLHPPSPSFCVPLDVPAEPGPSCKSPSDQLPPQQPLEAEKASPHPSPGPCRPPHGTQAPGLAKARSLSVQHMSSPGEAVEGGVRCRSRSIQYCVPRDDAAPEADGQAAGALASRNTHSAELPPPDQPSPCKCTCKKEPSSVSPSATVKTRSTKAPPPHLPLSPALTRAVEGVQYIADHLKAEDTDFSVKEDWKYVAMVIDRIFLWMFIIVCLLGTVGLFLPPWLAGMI

Structure (SMILES) | Activity [1] | further results
Cc1cc[n+](CCCC#Cc2cc(C#CCCC[n+]3ccc(C)c(C)c3)cc(C#CCCC[n+]3ccc(C)c(C)c3)c2)cc1C | 61.1% | –
c1ccc2c[n+](CCCCCc3cc(CCCCC[n+]4ccc5ccccc5c4)c(CCCCC[n+]4ccc5ccccc5c4)cc3CCCCC[n+]3ccc4ccccc4c3)ccc2c1 | 17.9% | –
CCCCc1ccc[n+](CCCCCc2cc(CCCCC[n+]3cccc(CCCC)c3)cc(CCCCC[n+]3cccc(CCCC)c3)c2)c1 | 16.1% | –
c1ccc(-c2ccc[n+](CCCCCc3cc(CCCCC[n+]4cccc(-c5ccccc5)c4)c(CCCCC[n+]4cccc(-c5ccccc5)c4)cc3CCCCC[n+]3cccc(-c4ccccc4)c3)c2)cc1 | 6.5% | IC50 [2]: 0.099 µM; IC50 [3]: 0.0054 µM
c1ccc(CCCCC[n+]2ccc3ccccc3c2)c(CCCCC[n+]2ccc3ccccc3c2)c1 | 31.1% | –
Cc1cc[n+](CCCCCc2cc(CCCCC[n+]3ccc(C)c(C)c3)cc(CCCCC[n+]3ccc(C)c(C)c3)c2)cc1C | 62.7% | –
Cc1cc[n+](CCCC#Cc2cc(C#CCCC[n+]3ccc(C)c(C)c3)c(C#CCCC[n+]3ccc(C)c(C)c3)cc2C#CCCC[n+]2ccc(C)c(C)c2)cc1C | 47.4% | –
Cc1cc[n+](CCC#Cc2ccc(C#CCC[n+]3ccc(C)c(C)c3)cc2)cc1C | 10.6% | –
Cc1cc[n+](CCCC#Cc2ccccc2C#CCCC[n+]2ccc(C)c(C)c2)cc1C | 31.3% | –
Cc1cc[n+](CCCC#Cc2cccc(C#CCCC[n+]3ccc(C)c(C)c3)c2)cc1C | 76.9% | –
c1ccc(-c2ccc[n+](CCCCCc3cc(CCCCC[n+]4cccc(-c5ccccc5)c4)cc(CCCCC[n+]4cccc(-c5ccccc5)c4)c3)c2)cc1 | 3.84% | –
Cc1cc(C)c[n+](CCCCc2ccc(CCCC[n+]3cc(C)cc(C)c3)cc2)c1 | 97.1% | –
CCCCc1ccc[n+](CCCC#Cc2cc(C#CCCC[n+]3cccc(CCCC)c3)cc(C#CCCC[n+]3cccc(CCCC)c3)c2)c1 | 36.1% | –
Cc1cc(C)c[n+](CCCCCc2ccccc2CCCCC[n+]2cc(C)cc(C)c2)c1 | 124% | –
C(#Cc1cc(C#CCCC[n+]2cccc(-c3ccccc3)c2)cc(C#CCCC[n+]2cccc(-c3ccccc3)c2)c1)CCC[n+]1cccc(-c2ccccc2)c1 | 5.5% | –
C(#Cc1cccc(C#CCCC[n+]2cccc3ccccc32)c1)CCC[n+]1cccc2ccccc21 | 41.6% | –
Cc1cc(C)c[n+](CCCCCc2cc(CCCCC[n+]3cc(C)cc(C)c3)cc(CCCCC[n+]3cc(C)cc(C)c3)c2)c1 | 79.8% | –
Cc1cc(C)c[n+](CCCC#Cc2ccccc2C#CCCC[n+]2cc(C)cc(C)c2)c1 | 67.6% | –
Cc1cc[n+](CCCCCc2cc(CCCCC[n+]3ccc(C)c(C)c3)c(CCCCC[n+]3ccc(C)c(C)c3)cc2CCCCC[n+]2ccc(C)c(C)c2)cc1C | 11% | –
C(#Cc1cc(C#CCCC[n+]2cccc3ccccc32)cc(C#CCCC[n+]2cccc3ccccc32)c1)CCC[n+]1cccc2ccccc21 | 10.5% | –

Structure (SMILES) | Activity [1] | further results
C(#Cc1ccccc1C#CCCC[n+]1ccc2ccccc2c1)CCC[n+]1ccc2ccccc2c1 | 28% | –
Cc1cc(C)c[n+](CCC#Cc2ccc(C#CCC[n+]3cc(C)cc(C)c3)cc2)c1 | 76.2% | –
Cc1cc[n+](CCCc2ccc(-c3ccc(CCC[n+]4ccc(C)c(C)c4)cc3)cc2)cc1C | 89.3% | –
c1cc(CCCCC[n+]2cccc3ccccc32)cc(CCCCC[n+]2cccc3ccccc32)c1 | 42.6% | –
C(#Cc1cc(C#CCCC[n+]2cccc(-c3ccccc3)c2)c(C#CCCC[n+]2cccc(-c3ccccc3)c2)cc1C#CCCC[n+]1cccc(-c2ccccc2)c1)CCC[n+]1cccc(-c2ccccc2)c1 | 0.3% | IC50 [4]: 3.8 µM; IC50 [5]: 0.8 µM; IC50 [6]: 0.12 µM; Activity [7]: Active; Activity [8]: inactive; Activity [9]: Dose-dependent effect; Activity [10]: inactive
Cc1cc[n+](CCCCc2ccc(CCCC[n+]3ccc(C)c(C)c3)cc2)cc1C | 36.7% | –
C(#Cc1cc(C#CCCC[n+]2ccc3ccccc3c2)c(C#CCCC[n+]2ccc3ccccc3c2)cc1C#CCCC[n+]1ccc2ccccc2c1)CCC[n+]1ccc2ccccc2c1 | 11.6% | –
Cc1cc[n+](CCCCCc2ccccc2CCCCC[n+]2ccc(C)c(C)c2)cc1C | 72% | –
Cc1cc[n+](CC#Cc2ccc(-c3ccc(C#CC[n+]4ccc(C)c(C)c4)cc3)cc2)cc1C | 8.1% | IC50 [2]: 1.19 µM; Activity [7]: Active; Activity [8]: inactive; Activity [9]: Dose-dependent effect; Activity [10]: inactive; IC50 [3]: 0.016 µM
Cc1cc(C)c[n+](CCCC#Cc2cc(C#CCCC[n+]3cc(C)cc(C)c3)cc(C#CCCC[n+]3cc(C)cc(C)c3)c2)c1 | 66% | –
Cc1cc(C)c[n+](CCCCCc2cc(CCCCC[n+]3cc(C)cc(C)c3)c(CCCCC[n+]3cc(C)cc(C)c3)cc2CCCCC[n+]2cc(C)cc(C)c2)c1 | 0.6% | –
Cc1cc[n+](CCCCCc2cccc(CCCCC[n+]3ccc(C)c(C)c3)c2)cc1C | 62.7% | –
c1cc(CCCCC[n+]2ccc3ccccc3c2)cc(CCCCC[n+]2ccc3ccccc3c2)c1 | 37.5% | –
c1ccc2c(c1)ccc[n+]2CCCCCc1cc(CCCCC[n+]2cccc3ccccc32)cc(CCCCC[n+]2cccc3ccccc32)c1 | 15.9% | Activity [7]: Active; Activity [8]: inactive; Activity [9]: Dose-dependent effect; Activity [10]: inactive
Cc1cc(C)c[n+](CCCC#Cc2cc(C#CCCC[n+]3cc(C)cc(C)c3)c(C#CCCC[n+]3cc(C)cc(C)c3)cc2C#CCCC[n+]2cc(C)cc(C)c2)c1 | 0.3% | –
c1ccc2c[n+](CCCCCc3cc(CCCCC[n+]4ccc5ccccc5c4)cc(CCCCC[n+]4ccc5ccccc5c4)c3)ccc2c1 | 6.9% | –
C(#Cc1cccc(C#CCCC[n+]2cccc(-c3ccccc3)c2)c1)CCC[n+]1cccc(-c2ccccc2)c1 | 23.2% | –
c1ccc(CCCCC[n+]2cccc3ccccc32)c(CCCCC[n+]2cccc3ccccc32)c1 | 10.9% | –
C(#Cc1cccc(C#CCCC[n+]2ccc3ccccc3c2)c1)CCC[n+]1ccc2ccccc2c1 | 39.7% | –
Cc1cc(C)c[n+](CCCc2ccc(-c3ccc(CCC[n+]4cc(C)cc(C)c4)cc3)cc2)c1 | 114% | –
